The test system of one data set is 6-OHDA lesioned rats. Nature of the data set: Contralateral turning behavior in 6-OHDA lesioned rats. It counts as in vivo, Male (ICR) Wistar rats. The note with it: scored for six hours. As for the experimental part:
The profile of dopamine agonists of the compound of the formula I was preliminary discovered by an induction of contralateral turning in rats with unilateral 6-hydroxy dopamine-induced lesions of the dopaminergic nigrostriatal pathway (according to the principles of U. Ungerstedt et al., Brain Research 24 (1970); p. 485).
Male (ICR) Wistar rats (290-310 g) anaesthetized i.p. with 50 mg/kg pentobarbital sodium were placed in a Stoelting stereotaxis frame and unilaterally injected with 6-hydroxy-dopamine (6-OHDA) in substantia nigra, pars compacta (8 μg of free base in 4 μl of saline kept ice cold with 0.2% ascorbic acid at the rate of 1 μl/min.). The neurotoxin was injected via a 10 μl Hamilton syringe under the following coordinates: A, 3.7 mm anterior to interaural line; V. 2.2 mm dorsal to interaural line; L, 2.2 mm from midline, according to Paxinos and Watson (The rat brain in stereotaxic coordinates. Academic Press, Sydney, Australia, 1982).
The needle was left in place 5 minutes further before being slowly withdrawn.
Following recovery from anaesthesia, rats were housed in a cage and given access to food and water ad libitum. After a 3 week recovery, rats were injected with apomorphine (0.5 mg/kg s.c.) and immediately put in automated rotometer bowls with a printing unit for 3 hours.
Only rats showing contralateral turning behavior totalling at least 250 complete turns within the control time, were used for the test with the compounds.
The test compounds were injected subcutaneously and rotational behavior scored each time for six hours.
All tested compounds were administered in a fixed volume (2 ml/kg body weight).

Data set [1] deals with apomorphine-induced climbing. Briefly: Antagonism to apomorphine-induced climbing in normal mice. It counts as in vivo. The note with it: for ED50: Mus musculus, po. As for the experimental part: The anti-dopaminergic activity in normal mice of the ergoline derivatives according to the invention was assessed by the antagonism to apomorphine-induced climbing (Protais, P. et al., Psychopharmacology, 50, 1, 1976).

A further data set concerns Reserpine-Treated Mice. Briefly: Locomotor activity in reserpine-treated mice. It counts as in vivo, Male mice, Crl:CD-1 (ICR) BR strain. The note with it: for No. of counts in 85 min.: reserpine 5 mg/kg i.p. pretreated; for locomotor activity in akinetic reserpinized mice: result in words, FCE 23884 at 1 mg/kg s.c. How it is done: Male mice, (22-25 g) of the Crl:CD^R -1 (ICR) BR strain, were used. Injection volume for drugs was 0.5 ml/100 g body weight. Locomotor activity in mice was examined from 5 up to 90 min. by use of two "Columbus activity Meters" placing 5 animals per cage after each treatment. Comparison was made with reserpine treated animals (5 mg/kg i.p.) receiving saline (controls).
Groups of five mice were used each time. Eighteen hours reserpine pretreated mice were subcataneously injected with the test compound or apomorphine or saline.
Five minutes later, the animals were tested for locomotor activity according D. Hinzen et al., European Journal of Pharmacology 131 (1986) 75-86.

A further data set relates to MPTP treated monkeys. Briefly: MPTP-induced parkinsonism in monkey model. It counts as in vivo, Marmosets and cynomolgus. The text has this:
In nonhuman primates MPTP (1-methyl-4-phenyl-1,2,3,6-tetrahydropyridine) selectively destroys dopaminergic neurons in the substantia nigra pars compacta as has been shown in different primate species (1) (2) including the common marmoset and cynomolgus.
Repeated administration of MPTP produces varying degrees of akinesia or bradykinesia accompanied by rigidity of limbs, loss of vocalization and postural tremor.
Marmosets and cynomolgus were employed in these experiments. Each animal was administered a variable dosage regime showing them to have an individual susceptibility to MPTP according to Jenner et al. (3).
For the marmoset the cumulative dose was between 11-29 mg/kg i.p. over time courses of 4-10 days for three marmosets and 10-12 mg/kg i.p. for two cynomolgus in 4 days. All the monkeys were severely affected, completely akinetic and rigid with loss of vocalization, and blink reflex, with some postural tremor and were rendered unable to eat by themselves. After two or three days of wash-out to avoid the acute effect of MPTP administration, compound FCE 23884 was injected subcutaneously once a day starting from the dose 0.1 mg/kg up to 2 mg/kg.
Saline was administered in alternate fashion every three treatements to avoid the normal described improvement after the suspension of MPTP administration.

The next data set concerns non-MPTP treated monkeys. Briefly: Behavior in non-MPTP treated monkeys. It counts as in vivo. The note with it: s.c.
The conditions of data set [2]: known side effects, background; cited from earlier work.

We go through five molecules from US4847253A, “Antiparkinson ergoline derivatives” (Farmitalia Carlo Erba, priority 1987, dated 1989).

“Also recorded” adds a separate entry of the source.

In the case of `CN1C[C@H](CN2CC(=O)NC(=O)C2)C[C@@H]2c3cccc4c3c(cn4C)C[C@H]21` [FCE 23952, 1,6-Dimethyl-8β-(3,5-dioxo-piperazin-1-yl-methyl)-ergoline], in the data set on 6-OHDA lesioned rats (1.0 mg/kg s.c.), the “No. of contralateral turns (X) in turning rats” value (from here on “No. of contralateral turns (X)”) was determined as 710.5 and the “Turning rats/Treated rats” value was 4/4. In data set [1], this molecule came in with a 50% effective dose (ED50) of 0.9 mg/kg.
Take `CN1C[C@H](CN2CC(=O)NC(=O)C2)C=C2c3cccc4[nH]cc(c34)C[C@H]21` [FCE 23884, 6-Methyl-9,10-didehydro-8β-(3,5-dioxo-piperazin-1-yl-methyl)-ergoline]: in the data set on Reserpine-Treated Mice (1.0 mg/kg s.c.), the “No. of counts in 85 min.” value is reported as 625. The “locomotor activity in akinetic reserpinized mice” value in the data set on Reserpine-Treated Mice is “elicits locomotor activity as does apomorphine”. Further, the “reversal of akinesia, time of onset” value in the data set with MPTP treated monkeys (highest dose, 2 mg/kg s.c.) was found to be 5 min; with MPTP treated monkeys (lowest dose, 0.1 mg/kg s.c.), 30 min. Besides, the “effect in lesioned / MPTP treated monkeys” value in the data set on MPTP treated monkeys (s.c.) is “dopaminergic effect in lesioned animals; also recorded: dopaminergic agent in the MPTP treated monkeys”. Further, the Reversal of akinesia entry in the data set on MPTP treated monkeys (s.c. once a day, 0.1 mg/kg up to 2 mg/kg) is reported as “Reversal of akinesia in a dose-dependent fashion was observed”. In addition, the “No. of contralateral turns (X)” value with 6-OHDA lesioned rats (0.1 mg/kg s.c.) amounted to 1317.5; in the data set with 6-OHDA lesioned rats (0.5 mg/kg s.c.), 2591.7; in the data set on 6-OHDA lesioned rats (1.0 mg/kg s.c.), 2146. The “Turning rats/Treated rats” value with 6-OHDA lesioned rats (0.1 mg/kg s.c.) is 9/10; with 6-OHDA lesioned rats (0.5 mg/kg s.c.), 10/10; in the data set with 6-OHDA lesioned rats (1.0 mg/kg s.c.) it was 5/5. For the same molecule, in the data set with non-MPTP treated monkeys, the “behavioral effect in non-MPTP treated monkeys” value is on record as “sedative effect in a dose-dependent fashion; also recorded: antidopaminergic in non MPTP-treated monkeys”. In data set [1], this molecule showed a 50% effective dose (ED50) of 0.5 mg/kg.
As to `CN1C(=O)CN(C[C@@H]2C[C@@H]3c4cccc5[nH]cc(c45)C[C@H]3N(C)C2)CC1=O` [FCE 23710, 6-Methyl-8β-(3,5-dioxo-4-methyl-piperazin-1-yl-methyl)-ergoline], in the data set with 6-OHDA lesioned rats (1.0 mg/kg s.c.), the “No. of contralateral turns (X)” value is 1829.2 and the “Turning rats/Treated rats” value is recorded as 4/4. This molecule gave an ED50 in data set [1] of 2.2 mg/kg.
Take `CN1CCc2cccc3c2[C@H]1Cc1ccc(O)c(O)c1-3` [apomorphine, reference compound]: in the data set on Reserpine-Treated Mice (0.05 mg/kg s.c.), the “No. of counts in 85 min.” value is 413. The “locomotor activity in akinetic reserpinized mice” value in the data set on Reserpine-Treated Mice is “elicits locomotor activity”.
As to `CC(C)C[C@H]1C(=O)N2CCC[C@H]2[C@]2(O)O[C@](NC(=O)[C@@H]3C=C4c5cccc6[nH]c(Br)c(c56)C[C@H]4N(C)C3)(C(C)C)C(=O)N12` [Bromocriptine, reference compound], the adverse effects result in data set [2] was “emesis, hypotension, cardiac arrhythmia, digital vasospasm in cold weather, conjunctival irritation, diplopia, nasal stuffiness, constipation and syndrome of bilateral red, tender edema of the lower limbs and neuroendocrine alterations”. Further, in the data set on 6-OHDA lesioned rats (1.0 mg/kg s.c.), the “No. of contralateral turns (X)” value was determined as 1922.3 and the “Turning rats/Treated rats” value is 6/9. Further, in data set [1] (p.o.), the “Apomorphine antagonism (ED50)” value is “Inactive at 10 mg/kg”.
